Experimental data from patent US12071438B2, “Crystal forms of an ALK2 inhibitor” (Keros Therapeutics, Inc., priority 2018, dated 2024).

Assays:
Assay type in all cases: physicochemical
[1] = 97% RH stress in polymorph screening study; conditions: RT, no solvent
[2] = Dynamic vapor sorption/desorption (DVS); conditions: for hygroscopicity by DVS / DVS weight gain and loss: 25° C.; for hygroscopicity by DVS: 0-95% RH; for DVS weight gain and loss: adsorption 0-95% RH, desorption to 0% RH
Protocol: (§1) Dynamic vapor sortion/desportion (DVS) analysis was conducted with a Hiden Isochema, IGAsorp, s/n IGSA 126. Samples were loaded in to a tared basket on the instrument and dried for 1 hour at 40° C. Samples were then analyzed at 25° C. with the following percent relative humidity (% RH) steps: Adsorption (% RH): 0.0, 10.0, 20.0, 30.0, 40.0, 50.0, 60.0, 70.0, 80.0, 90.0, 95.0, Desorption (% RH): 90.0, 80.0, 70.0, 60.0, 50.0, 40.0, 30.0, 20.0, 10.0, 0.0.

XRPD analysis after DVS = conditions: post-DVS
Protocol: X-ray powder diffraction (XRPD) patterns were collected on a Bruker D8 diffractometer using Cu Kα radiation (40 kV, 40 mA), θ-2θ goniometer and divergence of 0.6 mm and receiving slits, and a Lynxeye detector. The instrument is performance checked using a certified Corundum standard (NIST 1976). The software used for data collection was Diffrac Plus XRD Commander v2.6.1 and the data were analyzed and presented using Materials Data Jade Software v 9.7.0. Samples were prepared by transferring 2 to 50 mg of sample to a zero background holder coated with a thin layer of petroleum jelly and leveled with a glass plate and analyzed at ambient temperature. The sample was rotated in its own plane during analysis.
as §1

[3] = Form A and Form B competitive slurries (thermodynamically stable polymorph)
Protocol: To determine the thermodynamically stable polymorph between anhydrous Forms A and B, competitive slurries were conducted in three different solvent systems: ethanol, tetrahydrofuran, and 2-butanone (MEK)/water (95:5). Ethanol and tetrahydrofuran were chosen based on the solubility of the material. MEK was chosen as a potential process solvent and water was added to boost the solubility.
Thus, additional competitive slurries were conducted in three additional solvent systems: ethanol/heptane (1:5), ethyl acetate/water (97:3), and isopropanol/water (99:1). The ethanol/heptane system was evaluated at −15° C., 5° C., ambient (RT), and 40° C. The water containing systems were only evaluated at ambient temperature. The slurries were conducted for 7 days instead of 5 days, as done in the above slurries. Form D was also included in the competitive slurries containing water.

COc1cc2c(-c3cnn4cc(N5CCC(N6CCN(C)CC6)CC5)cnc34)ccnc2cc1F
XRPD Result [1]: Form C,

COc1cc2c(-c3cnn4cc(N5CCC(N6CCN(C)CC6)CC5)cnc34)ccnc2cc1F [Form A]
hygroscopicity by DVS [2]: hygroscopic
DVS weight gain and loss [2]: 38%
hygroscopicity by DVS below 80% RH ([2]; below 80% RH): non-hygroscopic
XRPD after DVS analysis (form change) (XRPD analysis after DVS): becomes highly disordered and converts to the hydrate, Form C
polymorph stability over time (competitive slurries) ([3]; 40° C. down to −15° C., 7 days versus 5 days): most stable polymorph
thermodynamic stability at low water activity ([3]; low water activity (99:1 IPA/water)): most thermodynamically stable

COc1cc2c(-c3cnn4cc(N5CCC(N6CCN(C)CC6)CC5)cnc34)ccnc2cc1F [Form B]
hygroscopicity by DVS [2]: slightly hygroscopic
DVS weight gain and loss [2]: 12%
moisture gain onset in DVS ([2]; low relative humidities): begins immediately even at low relative humidities
XRPD after DVS analysis (form change) (XRPD analysis after DVS): consistent with Form B

COc1cc2c(-c3cnn4cc(N5CCC(N6CCN(C)CC6)CC5)cnc34)ccnc2cc1F [Form C]
thermodynamic stability at high water activity ([3]; high water activity (97:3 EtOAc/water)): more favored

COc1cc2c(-c3cnn4cc(N5CCC(N6CCN(C)CC6)CC5)cnc34)ccnc2cc1F [compound of Formula I free base, 7-fluoro-6-methoxy-4-(6-(4-(4-methylpiperazin-1-yl)piperidin-1-yl)pyrazolo[1,5-a]pyrimidin-3-yl)quinoline]
hygroscopicity by DVS [2]: non-hygroscopic
DVS weight gain and loss [2]: 0.5%
XRPD after DVS analysis (form change) (XRPD analysis after DVS): No change
